Measured values as given in article PMC5520492, “Inhibition of DNA2 nuclease as a therapeutic strategy targeting replication stress in cancer cells” (Oncogenesis, 2017).
Structures can show the parent of a compound that is named as a salt. Where two headings read alike, the source gives them in different places.

Assays:
yDna2 = target: T1, yDna2 (Saccharomyces cerevisiae, UniProt P38859); assay: High-throughput fluorescence nuclease assay with yDna2 (triply labeled (dT)30 ssDNA); type: biochemical, yeast; details: for inhibition at 33.33 µM: read-out: % Inhibition yDna2
T1 construct: made in house
Protocol: (§1) The screen entailed the use of oligonucleotide (dT)30 having a reporter fluorescent moiety, 6-FAM on the 5′ end, and the dark quenching group, Iowa Black FQ, on the 3′ end. In addition, a second dark quencher ZEN was placed between the 9th and 10th base (Figure 2a). The fluorescence emitted by 6-FAM is quenched by FRET, but it increases when DNA is degraded by Dna2. […] The inhibitory activity of the compounds was determined as a reduction in fluorescent signal compared with the dimethylsulfoxide (DMSO) only control. […] We screened ~50 000 chemical compounds from six different libraries (Supplementary Table S1) to identify chemical inhibitors of the Dna2 nuclease activity. […] The DNA2 nuclease domain is well conserved among eukaryotes, and therefore we reasoned that inhibitors of yDna2 will likely also work with the human counterpart.
(§2) Initial screen, it was performed with yDna2.[22] Then, the top candidate compounds were tested on hDNA2. Identical reaction conditions were used for assaying the nuclease activity of yDna2 and hDNA2. […] The reaction buffer was 20 mM HEPES/NaOH, pH 7.5, 60 mM KCl, 1 mM DTT, 100 μg/ml bovine serum albumin and 0.05% Triton X-100. The nuclease assay was initiated by adding MgCl2 (3 mM final concentration). T5 nuclease was assayed in the buffer (50 mM potassium acetate, pH 7.9, 20 mM Tris-acetate, 10 mM magnesium acetate and 1 mM DTT) provided by the vendor (NEB, Ipswich, MA, USA). The concentration of the fluorogenic substrate was 0.1 μM. The optimal amount of yDna2, hDNA2 and T5 nuclease was determined by utilizing the Kaleidagraph software (Reading, PA, USA) to fit the data according to Michaelis Menton Kinetics (V=V0+Vmax*x/(Km+x)). […] The Z’ value was calculated as previously described.[50] Cell proliferation was determined using 4,6-diamidino-2-phenylindole staining followed by high-throughput microscopy in a 384-well plate setup. In brief, cells were fixed with formaldehyde, washed and stained with 4,6-diamidino-2-phenylindole and the number of nuclei in each well counted by automated microscopy. The data were analyzed as described.[51]

T5 nuclease = target: T2, T5 nuclease (Escherichia phage T5, UniProt P06229); assay: T5 nuclease counter-screen (fluorescence nuclease assay); type: biochemical; design: concentration or dose not given beside the values; details: re-screening against T5 nuclease
T2 construct: purchased NEB
Protocol: as §1, §2

[1] = screen at fixed inhibitor concentration (33.33 μM), 0.09 nM Dna2

T1 sequence (P38859 whole entry): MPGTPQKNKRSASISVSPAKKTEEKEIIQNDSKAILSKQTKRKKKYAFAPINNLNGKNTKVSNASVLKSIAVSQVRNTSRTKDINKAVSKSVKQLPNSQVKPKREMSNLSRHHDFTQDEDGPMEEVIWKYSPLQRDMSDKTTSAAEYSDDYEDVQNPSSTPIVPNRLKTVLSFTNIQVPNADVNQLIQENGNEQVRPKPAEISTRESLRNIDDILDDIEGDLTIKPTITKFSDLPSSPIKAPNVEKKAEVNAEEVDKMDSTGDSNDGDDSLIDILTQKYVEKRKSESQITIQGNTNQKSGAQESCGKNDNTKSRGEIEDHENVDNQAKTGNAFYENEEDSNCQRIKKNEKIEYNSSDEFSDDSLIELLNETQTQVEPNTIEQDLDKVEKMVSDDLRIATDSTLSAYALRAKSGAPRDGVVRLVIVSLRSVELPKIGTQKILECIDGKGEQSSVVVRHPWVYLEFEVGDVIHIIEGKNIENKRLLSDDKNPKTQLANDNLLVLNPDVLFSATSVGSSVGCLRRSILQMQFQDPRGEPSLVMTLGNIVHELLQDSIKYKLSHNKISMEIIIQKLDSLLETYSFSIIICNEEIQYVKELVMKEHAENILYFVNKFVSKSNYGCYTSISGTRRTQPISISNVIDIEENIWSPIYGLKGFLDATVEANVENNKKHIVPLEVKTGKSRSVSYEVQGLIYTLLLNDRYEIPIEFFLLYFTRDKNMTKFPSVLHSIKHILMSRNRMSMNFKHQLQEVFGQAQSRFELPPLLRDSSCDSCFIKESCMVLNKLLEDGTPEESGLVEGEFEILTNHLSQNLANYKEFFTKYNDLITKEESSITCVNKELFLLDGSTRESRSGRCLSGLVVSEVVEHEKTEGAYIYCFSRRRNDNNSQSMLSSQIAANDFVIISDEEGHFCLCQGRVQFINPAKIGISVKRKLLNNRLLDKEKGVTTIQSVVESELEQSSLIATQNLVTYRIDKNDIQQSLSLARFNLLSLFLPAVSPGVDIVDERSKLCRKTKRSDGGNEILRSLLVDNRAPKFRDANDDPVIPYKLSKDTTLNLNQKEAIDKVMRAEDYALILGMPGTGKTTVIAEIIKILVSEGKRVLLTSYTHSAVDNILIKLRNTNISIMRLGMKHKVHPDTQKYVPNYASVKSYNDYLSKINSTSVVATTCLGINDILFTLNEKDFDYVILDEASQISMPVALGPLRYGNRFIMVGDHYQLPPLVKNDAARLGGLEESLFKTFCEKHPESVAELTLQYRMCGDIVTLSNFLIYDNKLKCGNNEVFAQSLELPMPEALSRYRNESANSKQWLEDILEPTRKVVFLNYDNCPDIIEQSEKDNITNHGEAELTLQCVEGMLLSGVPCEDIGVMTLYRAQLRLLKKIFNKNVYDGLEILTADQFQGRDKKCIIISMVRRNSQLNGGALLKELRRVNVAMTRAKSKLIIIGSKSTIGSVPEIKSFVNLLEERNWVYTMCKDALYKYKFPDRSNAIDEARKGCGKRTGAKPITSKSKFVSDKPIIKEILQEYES
T2 sequence (P06229 whole entry): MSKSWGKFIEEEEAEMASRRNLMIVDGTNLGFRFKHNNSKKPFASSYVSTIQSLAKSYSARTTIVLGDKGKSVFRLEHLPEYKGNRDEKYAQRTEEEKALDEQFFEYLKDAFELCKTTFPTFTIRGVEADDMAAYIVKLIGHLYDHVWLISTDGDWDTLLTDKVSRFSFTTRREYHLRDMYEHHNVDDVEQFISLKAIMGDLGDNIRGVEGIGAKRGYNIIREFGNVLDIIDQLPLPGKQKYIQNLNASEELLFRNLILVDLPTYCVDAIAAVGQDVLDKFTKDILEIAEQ

Compound	% Inhibition yDna2 (yDna2; [1])	% Inhibition T5 nuclease (T5 nuclease)	inhibition at 33.33 µM (yDna2; [1])	inhibition at 33.33 µM (yDna2)
Cc1cc(N)c2cc(NC(=O)/C=C/c3ccccc3Cl)ccc2n1 [NSC33353]	100%	100%		
Deqalinium dichloride [reference compound]	100%	100%		
CCN(CC)CCCC(C)Nc1c2ccc(Cl)cc2nc2ccc(OC)cc12 (centres unmarked) [Quinacrine dihydrochloride, reference compound]		55.4%	67.8%	
CCN(CC)Cc1cc2[nH]c3c4ccc(Cl)cc4ncc3c2cc1OC [NSC317605]	100%	99.2%		
O=C(Nc1ccc(Nc2ccncc2)cc1)c1ccc(Nc2ccnc3ccc([N+](=O)[O-])cc23)cc1 [NSC146771]	76.5%	100%		
O=C1c2c(O)ccc(O)c2C(=O)c2c(NCCNCCO)ccc(NCCNCCO)c21 [Mitoxantrone dihydrochloride, reference compound]		100%	100%	
O=C(Nc1ccc(C2=NCCN2)cc1)c1ccc(C(=O)Nc2ccc(C3=NCCN3)cc2)c(Cl)c1 [NSC60339]		100%		100%
O=C(Nc1ccc(C2=NCCN2)cc1)c1ccc(Cl)c(C(=O)Nc2ccc(C3=NCCN3)cc2)c1 [NSC67436]	100%	100%		
Cc1cc(N)c2ccccc2[n+]1CCCCCCCCCC[n+]1c(C)cc(N)c2ccccc21 [NSC166454]		88.9%	55.4%	
Cn1ccc(=Nc2ccc(NC(=O)c3ccc(N=c4ccn(C)c5ccc([N+](=O)[O-])cc45)cc3)cc2)cc1 [NSC260594]	94.8%	100%		
COc1cccc2c1C(=O)c1c(O)c3c(c(O)c1C2=O)C[C@@](O)(C(C)=O)C[C@@H]3O[C@H]1C[C@H](N)[C@H](O)[C@H](C)O1 [Daunorubicin hydrochloride, reference compound]		98.1%		100%
CC(=O)[O-].Cc1c2cc[n+](CCN3CCCCC3)cc2c(C)c2c1[nH]c1ccc(O)cc12 [NSC311153]	100%	100%		
Cc1cc2c(c3oc(C4(C)OC4C4OC4C)cc(=O)c13)C(=O)c1c(O)c(C3CC(C)(N(C)C)C(O)C(C)O3)cc(C3CC(N(C)C)C(O)C(C)O3)c1C2=O (centres unmarked) [NSC70929]	100%	100%		
CCCCC(CC)CNC(=N)NC(=N)NCCCCCCNC(=N)NC(=N)NCC(CC)CCCC (centres unmarked) [Alexidine dihydrochloride, reference compound]		100%	63.5%	
COc1cccc2c1C(=O)c1c(O)c3c(c(O)c1C2=O)CC(O)(/C(C)=N/O)CC3OC1CC(N)C(O)C(C)O1 (centres unmarked) [NSC143491]	100%	97.9%		
[Mo] [NSC622124]	93.4%	96.1%		
COc1cccc2c1C(=O)c1c(O)c3c(c(O)c1C2=O)C[C@@](O)(C(=O)CO)C[C@@H]3O[C@H]1C[C@H](N)[C@H](O)[C@H](C)O1 [Doxorubicin hydrochloride, reference compound]		100%	100%	
Cc1cc2nc3ccc(N(C)C)cc3[s+]c2cc1N [NSC36758]		83.9%	100%	
COc1ccc2nc(C)cc(NCCCCCCCCCNc3cc(C)nc4ccc(OC)cc34)c2c1 [NSC10010]	90.3%	93.7%		
